Measurements taken from patent publication US8304238B2, “Cell culture medium and immobilized preparation of cell adhesion protein or peptide” (Nat'l Institute for Environmental Studies, priority 2003, dated 2012).
Where no end group is shown, it is not given here.

What was measured:
[1] = tested on: alveolar type II epithelial cells (T2 cells); assay: Inhibition by free cell adhesion peptides of T2 cell adhesion to coated cell adhesion proteins FN, Col I, LN, VN; format: cell-based; conditions: free peptide 0.25 mg/ml; serum-free, 1 day
[2] = tested on: alveolar type II epithelial cells (T2 cells); assay: Binding strength (affinity) of immobilized LN peptides to T2 cells relative to immobilized FIB-1 (mixed immobilization, free FIB-1 competition); format: cell-based; set-up: key to Binding strength to T2 cells, Comprehensive evaluation: AA: extremely strongly binding/adhering; A: strongly binding/adhering; B: intermediately binding/adhering (as the same degree as FIB-1 peptide); C: more weakly binding/adhering than FIB-1 peptide
Outline: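 MMAC-coated wells coated with FIB-1 (0.25 mg/ml) mixed with LN peptide (e.g. AG73) at varied ratios; free FIB-1 competition. T2 cells cultured serum-free 1 day; adhesion expressed relative to immobilized FIB-1 (100%). Relative binding strength derived from mixing ratio at transitional midpoint.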

[3] = tested on: alveolar type II epithelial cells (T2 cells); assay: Inhibition of T2 cell adhesion to immobilized cell adhesion peptide substrates by heparin treatment; format: cell-based; conditions: 24-hour culture
Method: 100 μg/ml of heparin solution was poured into a well prepared according to the method in Example 6, wherein the cell adhesion peptides were immobilized, and the incubation was conducted for 2 hours. The heparin solution was removed after heparin bound to the immobilized cell adhesion peptides, and T2 cell suspension was seeded on the well.
It is theoretically shown that after the cell adhesion peptides first bind to heparin and are covered with heparin, the cell adhesion receptors having heparin-like sugar chain (heparan sulfate) present on the cell surface, in other words, syndecan, a protein that belongs to heparan sulfate proteoglycan, cannot bind to the cell adhesion peptides by using the sugar chain part of the heparan sulfate, thereby the cell adhesion is inhibited.

[4] = tested on: alveolar type II epithelial cells (T2 cells); assay: Inhibition of T2 cell adhesion by free peptide different from the immobilized peptide substrate; format: cell-based
Outline: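 T2 cells cultured on immobilised peptide substrate, with a free peptide differing from the immobilised one added to the medium. Adhesion inhibition read as competition for syndecan binding.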

[5] = tested on: alveolar type II epithelial cells (T2 cells); assay: Time course of cell adhesion/spreading of T2 cells on immobilized cell adhesion peptide substrates; format: cell-based; conditions: 24-hour culture
Method: Culture was conducted by using the cell adhesion peptides immobilized on a well and T2 cells, for 1-24 hours according to the method in Example 8.
As cell adhesion peptides, AG73 was used in B, E and M, FIB-1 was used in C, L and O, A3G72 was used in F, A4G82 was used in G and N, A5G71 was used in H, A5G77 was used in I, hA3G75 was used in J, and hA3G83 was used in K; FN was used as a standard substance in A and D.

[6] = tested on: alveolar type II epithelial cells (T2 cells); assay: Static and forced stretching culture of T2 cells on MMAC-coated silicone wells with immobilized proteins or peptides; format: cell-based
Method: A silicone well coated with MMAC was obtained by pouring 0.5 ml of ethanol solution of 50 μg/ml of MMAC (ISP, International Specialty Products, USA) into a silicone well with a groove of 20 mm×20 mm×10 mm, absorbing excess solution, and conducting air-drying.
Into the silicone wells coated by the method described in Example 1, 10 μg/ml of cell adhesion protein solution of fibronectin (FN), laminin-1 (LN), dissolved in 0.1 M triethanolamine buffer solution of pH 8.8, or 0.25 mg/ml of cell adhesion peptide solution of FIB-1, AG73 was poured respectively, and the reaction was conducted for at least several hours at 37° C. to bind and immobilize these proteins or peptides having cell adhesion activity (see Example 6 described later for particulars of immobilization). Subsequently, alveolar type II epithelial cell (T2 cells) suspension was poured, 5×10^4/cm^2 per unit area, and the culture was started in a CO2 culture apparatus.
T2 cells, 2×10^5/cm^2 per unit area, were seeded on the silicone well wherein the cell adhesion proteins or peptides were immobilized, which had been prepared in an almost same manner as that of Example 2, and static culture was conducted for 1 day. After confirming that the seeded cells confluently spread all over the culture face, horizontal cell stretching was forcibly started at the stretching degree of twenty five percents and at the frequency of 15 times per minute, by using cell culture stretching apparatus (Scholar Tec), and the culture was continued one more day. After the culture was finished, photographs of cell adhesion state were taken with a phase contrast microscope (FIG. 2, top 4 rows).
T2 cells, 5×10^4/cm^2 per unit area, were seeded on the silicone well wherein the cell adhesion proteins or peptides were immobilized, which had been prepared in an almost same manner as that of Example 2, and static culture was conducted for 3 days. T2 cells grew in a manner similar to that shown in FIG. 1, 3d (results are not shown because they are overlapping). Then, the cells were subjected to the same stimuli of forced stretching as in Example 1, and the culture was continued one more day. After the culture was finished, photographs of cell adhesion state were taken with a phase contrast microscope (FIG. 2, middle 4 rows) (FN, 3dC-1dS, LN, 3dC-1dS, FIB-1, 3dC-1dS, and AG-73, 3dC-1dS).
Forced stretching culture was conducted for 3 days in an almost same manner as stretching culture of Example 4. After the culture was finished, photographs of cell adhesion state were taken with a phase contrast microscope (FIG. 2, bottom 4 rows) (FN, 3dC-3dS, LN, 3dC-3dS, FIB-1, 3dC-3dS, and AG-73, 3dC-3dS).

[7] = tested on: alveolar type II epithelial cells (T2 cells); conditions: known, usual requirement; cited from earlier work

YAVTGRGDSPAS [reference compound]
Inhibition of adhesion of T2 cells to FN, Col I, LN and VN by free peptide [1]: does not exhibit inhibitory effect
Binding strength to T2 cells, Comprehensive evaluation ([2]; classification relative to FIB-1 peptide): B
Binding strength to T2 cells, Ratio to FIB-1 ([2]; inverse of mixing ratio at transitional midpoint, FIB-1 0.25 mg/ml, MMAC-coated well): (1)
Inhibition of cell adhesion to immobilized peptide by heparin treatment ([3]; 100 μg/ml heparin 2 hours): no inhibition
Inhibition degree of cell adhesion, Heparin ([3]; immobilized peptide treated with 100 μg/ml heparin 2 hours): No
Inhibition by free peptide of T2 cell adhesion to immobilized AG73 ([4]; AG73 (etc.) immobilized): no inhibition occurred
Inhibition by free peptide of T2 cell adhesion to immobilized AG73 and A4G82 peptides ([4]; AG73 and A4G82 immobilized): could not inhibit
Inhibition by free peptide of T2 cell adhesion to immobilized AG81.2 and AG73T ([4]; AG81.2 and AG73T immobilized): inhibited the adhesion
Inhibition by free peptide of T2 cell adhesion to immobilized FIB-1 ([4]; FIB-1 immobilized): competitively inhibited
Cell adhesion/spreading on immobilized peptide [5]: almost all cells had finished spreading
Reorientation of T2 cells under forced stretching ([6]; 1 day static, 1 day stretching (1dC-1dS), 25 percent, 15 times per minute): spread in an elongated shape to a direction perpendicular to the direction of forced stretching
Change of type II epithelial cells into a shape like type I epithelial cells ([6]; 3 days static, 3 days stretching (3dC-3dS)): less observed
Concentration of free FIB-1 peptide required to inhibit adhesion to FN [7]: ≥ 1 mg/mL
